For three compounds, MIC results are on record in patent US4438107A, “Aminoglycosides and use thereof” (Kowa Company, Ltd., priority 1981, dated 1984).

Values after ≈ are worked out from the molar mass of the structure shown. Where two headings read alike, the source gives them in different places. Some results are limits rather than exact numbers.

Assay [1] deals with Staphylococcus aureus 209P JC-1. The assay can be described thus: antibacterial spectrum, minimal inhibitory concentration. Type of assay: cell-based.
In assay [2] the test system is Bacillus anthracis. The assay can be described thus: microbe, parasite or virus in culture. In kind it is cell-based. The following applies: read-out: Minimal inhibitory concentration.
Assay [3] deals with Bacillus cereus. The experiment in a line: antibacterial spectrum, minimal inhibitory concentration. In kind it is cell-based.
Assay [4] relates to Bacillus subtilis ATCC 6633. The assay is described as above. Type of assay: cell-based. The settings on record: ATCC6633.
Assay [5] deals with Streptococcus faecalis. The assay is described as above. The following applies: Enterococcus faecalis. Type of assay: cell-based.
Assay [6] concerns Escherichia coli NIHJ JC-2. The description is as above. In kind it is cell-based.
The subject of assay [7] is Escherichia coli K-12 ML1410. The assay is described as above. In kind it is cell-based. The settings on record: K12ML1410.
Assay [8] relates to Escherichia coli R-82. The assay is described as above. In kind it is cell-based. The following applies: R82, resistance mechanism APH(3')II.
Assay [9] concerns Escherichia coli R-101. Described as above. Type of assay: cell-based.
For assay [10], the system named is Escherichia coli R-176. Described as above. In kind it is cell-based. The following applies: R176, resistance mechanism AAC(3)II.
Assay [11] concerns Escherichia coli JR88/W677. Described as above. Type of assay: cell-based. The settings on record: resistance mechanism AAC(3)I.
The subject of assay [12] is Proteus vulgaris OX-19. The assay is described as above. In kind it is cell-based. The settings on record: OX19; Proteus vulgaris OX-19; read-out: Minimal inhibitory concentration.
The subject of assay [13] is Klebsiella pneumoniae PCI 602. The assay is described as above. In kind it is cell-based.
Assay [14] deals with Pseudomonas aeruginosa No. 12. The assay is described as above. Type of assay: cell-based.
For assay [15], the system named is Pseudomonas aeruginosa No. 99. Described as above. In kind it is cell-based. The following applies: Pseudomonas aeruginosa No. 99; resistance mechanism AAC(3)I; read-out: Minimal inhibitory concentration.
Assay [16] has as its system Pseudomonas aeruginosa TI-13. Described as above. Type of assay: cell-based. The source says:
| Resistance mechanism: ^a APH(3')I,

The subject of assay [17] is Pseudomonas aeruginosa A3. The description is as above. In kind it is cell-based.
Assay [18] concerns Pseudomonas aeruginosa K-11. Described as above. The following applies: K11; Pseudomonas aeruginosa K-11; read-out: Minimal inhibitory concentration. Type of assay: cell-based.
For assay [19], the system named is Pseudomonas aeruginosa TK-157. Described as above. Type of assay: cell-based.
Assay [20] relates to Pseudomonas aeruginosa GN315. Described as above. Type of assay: cell-based.
Assay [21] relates to Proteus inconstans GN1554. The assay is described as above. Type of assay: cell-based. The following applies: Providencia alcalifaciens.
The test system of assay [22] is Serratia marcescens. The description is as above. Type of assay: cell-based. The settings on record: read-out: Minimal inhibitory concentration.
For assay [23], the system named is Escherichia coli R-81. Described as above. The following applies: R81, read-out: Minimal inhibitory concentration.
[24] abbreviates: NIHJJC2, Escherichia coli NIHJ JC-2, read-out: Minimal inhibitory concentration.
[25] abbreviates: R101, Escherichia coli R-101, resistance mechanism AAD(2"), read-out: Minimal inhibitory concentration.
[26] abbreviates: Klebsiella pneumoniae, PCI602, read-out: Minimal inhibitory concentration.
[27] abbreviates: Pseudomonas aeruginosa, A3, read-out: Minimal inhibitory concentration.
Setting [28] is: TK157, Pseudomonas aeruginosa TK-157, resistance mechanism APH(3')II, read-out: Minimal inhibitory concentration.
Where [29] appears, read: Pseudomonas aeruginosa GN315, resistance mechanism AAC(6')IV, read-out: Minimal inhibitory concentration.
Where [30] appears, read: Proteus inconstans GN1554, resistance mechanism AAC(2'), read-out: Minimal inhibitory concentration.
Setting [31] is: TI13, Pseudomonas aeruginosa TI-13, resistance mechanism APH(3')I, read-out: Minimal inhibitory concentration.

Take `CC(N)C1CCC(N)C(OC2C(N)CC(O[C@@H]3O[C@H](CO)[C@@H](O)[C@H](O)[C@H]3O)C(N(C)C(=O)CN)C2O)O1` (stereo partly drawn) [D, 5-de-O-methyl-5-O-(β-D-glucopyranosyl)-KA-6606 I]: the MIC in assay [1] is 0.78 µg/mL (≈ 1.45 µM); in assay [2], 0.2 µg/mL (≈ 0.372 µM); in assay [3], 6.25 µg/mL (≈ 11.6 µM); in assay [4], 0.39 µg/mL (≈ 0.725 µM); in assay [5], above 100 µg/mL; in [6] (setting [24]), 6.25 µg/mL (≈ 11.6 µM). Further, the MIC amounted to 12.5 µg/mL (≈ 23.3 µM) in [7]; 12.5 µg/mL (≈ 23.3 µM) in assay [8]; 6.25 µg/mL (≈ 11.6 µM) in [9] (setting [25]); 3.13 µg/mL (≈ 5.82 µM) in assay [10]; 3.13 µg/mL (≈ 5.82 µM) in assay [11]; 6.25 µg/mL (≈ 11.6 µM) in [12]. Also, the MIC amounted to 3.13 µg/mL (≈ 5.82 µM) in assay [13] (setting [26]); 0.78 µg/mL (≈ 1.45 µM) in assay [14]; 25 µg/mL (≈ 46.5 µM) in assay [15]; 12.5 µg/mL (≈ 23.3 µM) in assay [16] (Pseudomonas aeruginosa, TI13, read-out: Minimal inhibitory concentration); 12.5 µg/mL (≈ 23.3 µM) in [17] (setting [27]); 25 µg/mL (≈ 46.5 µM) in [18]. The MIC in assay [19] (setting [28]) worked out at 6.25 µg/mL (≈ 11.6 µM); in assay [20] (setting [29]), 25 µg/mL (≈ 46.5 µM); in assay [21] (setting [30]) it was 25 µg/mL (≈ 46.5 µM); in [22], 3.13 µg/mL (≈ 5.82 µM); in assay [23] it was 12.5 µg/mL (≈ 23.3 µM).

As to `CC(N)C1CCC(N)C(OC2C(N)CC(O[C@H]3O[C@H](CO)[C@@H](O)[C@H](N)[C@H]3O)C(N(C)C(=O)CN)C2O)O1` (stereo partly drawn) [E, 5-O-(3-amino-3-deoxy-α-D-glucopyranosyl)-5-de-O-methyl-KA-6606 I], the MIC in assay [1] is 0.39 µg/mL (≈ 0.727 µM); in [2] it was 0.2 µg/mL (≈ 0.373 µM); in assay [3], 0.78 µg/mL (≈ 1.45 µM); in assay [4], 0.2 µg/mL (≈ 0.373 µM); in [5], 50 µg/mL (≈ 93.2 µM); in [6] (setting [24]), 3.13 µg/mL (≈ 5.83 µM). Besides, the MIC was 6.25 µg/mL (≈ 11.6 µM) in assay [7]; 6.25 µg/mL (≈ 11.6 µM) in assay [8]; 3.13 µg/mL (≈ 5.83 µM) in assay [9] (setting [25]); 6.25 µg/mL (≈ 11.6 µM) in assay [10]; 1.56 µg/mL (≈ 2.91 µM) in assay [11]; 3.13 µg/mL (≈ 5.83 µM) in [12]. The MIC in assay [13] (setting [26]) was found to be 1.56 µg/mL (≈ 2.91 µM); in [14], 0.39 µg/mL (≈ 0.727 µM); in assay [15] it was 12.5 µg/mL (≈ 23.3 µM); in assay [16] (setting [31]), 3.13 µg/mL (≈ 5.83 µM); in assay [17] (setting [27]) it was 6.25 µg/mL (≈ 11.6 µM); in assay [18], 3.13 µg/mL (≈ 5.83 µM). Also, the MIC worked out at 1.56 µg/mL (≈ 2.91 µM) in [19] (Pseudomonas aeruginosa, TK157, read-out: Minimal inhibitory concentration); 6.25 µg/mL (≈ 11.6 µM) in assay [20] (Pseudomonas aeruginosa, GN315, read-out: Minimal inhibitory concentration); 6.25 µg/mL (≈ 11.6 µM) in [21] (GN1554, read-out: Minimal inhibitory concentration); 1.56 µg/mL (≈ 2.91 µM) in assay [22]; 6.25 µg/mL (≈ 11.6 µM) in assay [23].

Turning to `COC1CC(N)C(OC2OC(C(C)N)CCC2N)C(O)C1N(C)C(=O)CN` (stereo not drawn) [KA-6606 I, reference compound], the MIC was found to be 0.39 µg/mL (≈ 1 µM) in assay [1]; 0.2 µg/mL (≈ 0.513 µM) in assay [2]; 1.56 µg/mL (≈ 4.01 µM) in [3]; 0.2 µg/mL (≈ 0.513 µM) in [4]; 25 µg/mL (≈ 64.2 µM) in [5]; 3.13 µg/mL (≈ 8.04 µM) in assay [6] (Escherichia coli, NIHJJC2, read-out: Minimal inhibitory concentration). The MIC in [7] was 3.13 µg/mL (≈ 8.04 µM); in assay [8] it was 3.13 µg/mL (≈ 8.04 µM); in assay [9] (Escherichia coli, R101, read-out: Minimal inhibitory concentration), 3.13 µg/mL (≈ 8.04 µM); in [10] it was 3.13 µg/mL (≈ 8.04 µM); in assay [11], above 100 µg/mL; in assay [12] it was 1.56 µg/mL (≈ 4.01 µM). The MIC in [13] (PCI602, Klebsiella pneumoniae PCI 602, read-out: Minimal inhibitory concentration) is 1.56 µg/mL (≈ 4.01 µM); in assay [14], 0.39 µg/mL (≈ 1 µM); in [15] it was above 100 µg/mL; in assay [16] (setting [31]), 6.25 µg/mL (≈ 16 µM); in [17] (Pseudomonas aeruginosa A3, read-out: Minimal inhibitory concentration), 6.25 µg/mL (≈ 16 µM); in assay [18], 12.5 µg/mL (≈ 32.1 µM). For the same compound, the MIC was 6.25 µg/mL (≈ 16 µM) in [19] (setting [28]); 12.5 µg/mL (≈ 32.1 µM) in [20] (setting [29]); 6.25 µg/mL (≈ 16 µM) in assay [21] (setting [30]); 3.13 µg/mL (≈ 8.04 µM) in assay [22]; 3.13 µg/mL (≈ 8.04 µM) in assay [23].
